Molecules are shown by their SMILES. The source made the active and inactive calls. No rule for the calls is given here. Where a SMILES comes first, the peptide text is derived from it. Bridges are numbered along the chain shown (N, C = ends). The star is where a group is joined. ξ: configuration not given here. Pentadecanoyl(3ξ-OH,15-Gua) = N=C(N)NCCCCCCCCCCCCC(O)CC(=O)*

Ubiquitin carboxyl-terminal hydrolase 10 (Homo sapiens), sequence (Q14694 whole entry, looked up): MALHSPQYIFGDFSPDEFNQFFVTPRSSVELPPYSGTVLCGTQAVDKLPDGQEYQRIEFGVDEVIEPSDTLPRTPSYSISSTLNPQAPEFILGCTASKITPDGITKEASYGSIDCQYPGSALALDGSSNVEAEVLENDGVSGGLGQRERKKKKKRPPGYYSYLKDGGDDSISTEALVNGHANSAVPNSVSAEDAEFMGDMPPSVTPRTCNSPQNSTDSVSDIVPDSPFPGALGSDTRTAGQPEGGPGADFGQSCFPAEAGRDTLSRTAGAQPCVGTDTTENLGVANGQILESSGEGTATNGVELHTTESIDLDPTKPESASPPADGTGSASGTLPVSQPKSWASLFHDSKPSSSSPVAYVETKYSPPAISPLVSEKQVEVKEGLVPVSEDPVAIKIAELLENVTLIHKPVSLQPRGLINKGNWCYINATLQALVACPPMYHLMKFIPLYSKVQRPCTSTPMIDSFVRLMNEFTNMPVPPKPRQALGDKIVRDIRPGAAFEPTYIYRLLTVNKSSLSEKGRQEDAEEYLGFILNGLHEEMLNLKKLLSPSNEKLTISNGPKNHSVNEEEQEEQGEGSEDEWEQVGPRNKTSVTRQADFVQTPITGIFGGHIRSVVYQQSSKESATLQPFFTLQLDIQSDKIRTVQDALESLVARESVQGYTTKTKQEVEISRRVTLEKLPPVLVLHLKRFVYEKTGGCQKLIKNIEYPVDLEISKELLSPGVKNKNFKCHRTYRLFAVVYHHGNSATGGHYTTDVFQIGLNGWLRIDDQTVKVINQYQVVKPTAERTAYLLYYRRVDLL

This assay has as its target Ubiquitin carboxyl-terminal hydrolase 10 (Homo sapiens) (UniProt Q14694). Description: primary hit verification, biochemical, ubiquitin-specific protease 10 deubiquitylase inhibitors, concentration-effect titration (AID 1645863).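 Also: potency values describe inhibition of USP10 cleavage of a fluorogenic ubiquitin substrate.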 As to conditions: USP10 deubiquitinase enzymatic assay.
For the compound `CC1CCCN(S(=O)(=O)c2ccc(-n3cnc(C(=O)NC4CC4)c3)nc2)C1` (stereo not drawn), the IC50 is 23.2 µM.

For `COc1cc(C)cc2c1C(=O)c1c(cc(O)c(Cl)c1O)C2=O`, the IC50 is 4.38 µM.

`Cc1ccc(NC(=O)c2nnn(CC(=O)Nc3cccc(C)c3C)c2N)cc1C`: the IC50 was 18.1 µM.

As to `CCCc1cc(=O)n2[nH]c(COc3ccccc3)c(-c3ccccc3)c2n1`, the IC50 was 14 µM.

With `O=C(/C=C/c1ccc(F)cc1)N1CCc2ccccc2C1`, the IC50 was > 40 µM (inactive).

`Cc1ccc(Cl)cc1NC(=O)c1cc(-c2ccccn2)n[nH]1`: the IC50 is > 40 µM (inactive).

Take `CC1NC(=O)C(CC(N)=O)NC(=O)C(C(C)O)NC(=O)C(Cc2ccc(O)cc2)NC(=O)C(C(C)C)NC(=O)C(NC(=O)CC(O)CCCCCCCCCCCCN=C(N)N)C(C)OC1=O` (stereo not drawn) ({Pentadecanoyl(3ξ-OH,15-Gua)}-TVYTNA; ester 1-C; configuration not given here): the IC50 was > 40 µM (inactive).

As to `COC(=O)c1ccccc1NC(=O)C1CCCN(c2nnc(-n3cccc3)s2)C1` (stereo not drawn), the IC50 is > 40 µM (inactive).

As to `COc1ccc(-c2cc3n(c(=N)c2C#N)CCc2cc4c(cc2-3)OCO4)cc1O`, the IC50 is > 40 µM (inactive).

`CCCCCC(=O)C(CCCC)c1oc(=O)c(CCCC)c(O)c1CCCC` (stereo not drawn): the half-inhibitory concentration (IC50) was 31 µM.

For `Cc1ccc(Nc2nc(NCC(=O)Nc3cc(C)ccc3C)nc(Nc3ccc(C)cc3)n2)cc1`, the IC50 is 32.8 µM.

For `NC(=O)C[C@H](NC(=O)[C@H](Cc1ccccc1)n1c(=O)[nH]c2ccccc2c1=O)C(=O)N[C@@H](Cc1ccccc1)C(=O)O`, the IC50 was > 40 µM (inactive).

For the compound `Cc1ccc2[nH]c(=O)c(CN(CC3COCCO3)S(=O)(=O)c3ccc(F)cc3)cc2c1` (stereo not drawn), the IC50 is > 40 µM (inactive).

For the compound `NC(=O)c1ccccc1NC(=O)COc1ccc2c(c1)oc(=O)c1ccccc12`, the IC50 is 5.75 µM.

On to `COc1cccc(NC(=O)c2oc3ccccc3c2NC(=O)COc2cccc(OC)c2)c1`, for which the IC50 is > 40 µM (inactive).

As for `Cc1nc(-c2ccc(Cl)cc2)oc1C(=O)Nc1ccc(Cl)cc1`, the IC50 was 38.1 µM.

`COc1ccc(-c2nc(-c3nnn(Cc4ccc(F)cc4)c3C)no2)c(OC)c1`: the IC50 was > 40 µM (inactive).

As for `O=C(c1ccc2cc[nH]c2c1)N1CCC(Nc2cccnc2)C1` (stereo not drawn), the IC50 was > 40 µM (inactive).

For the compound `COc1ccc(/C=C/C(=O)Nc2cccc(S(=O)(=O)Nc3ccccc3Cl)c2)c(OC)c1`, the IC50 is 15 µM.

For `CCc1ccc(OCCn2c(CCNC(=O)C3CCCCC3)nc3ccccc32)cc1`, the IC50 is > 40 µM (inactive).

For the compound `Cc1ccc(NC(=O)Nc2ccc(C)n(CC(=O)Nc3cc(C)ccc3C)c2=O)cc1`, the IC50 is > 40 µM (inactive).

With `CCn1cc2c(n1)c(=O)n(Cc1ccccc1)c(=O)n2CC(=O)NCc1ccc(C)cc1`, the IC50 is > 40 µM (inactive).

Take `COC(=O)c1ccc(NC(=O)/C=C/c2ccc(F)cc2)cc1`: the IC50 is > 40 µM (inactive).

In the case of `CCOc1ccc(NC(=O)Cn2c(=O)n(CCC(=O)NCc3ccco3)c(=O)c3ccccc32)cc1`, the half-maximal inhibitory concentration (IC50) was 24.4 µM.

Consider `CC(C)=CCc1c2c(c3occ(-c4ccc(O)c(O)c4)c(=O)c3c1O)C=CC(C)(C)O2`, for which the IC50 was 6.37 µM.

In the case of `C=C/C(=C/C(=O)C[C@H](C)C[C@@H](C)CC[C@H](O)[C@H](C)C(=O)CC(O)[C@H](C)[C@@H](C)OC(=O)C[C@@H](O)C1=C(C)C(=O)OC1=O)CC` (stereo partly drawn), the IC50 was 9.16 µM.

In the case of `O=C(CCCC(=O)N(c1ccc2c(c1)OCCO2)C(C(=O)NC1CCCCC1)c1ccc(F)cc1)Nc1ccccn1` (stereo not drawn), the IC50 was 27.6 µM.

Take `O=C1c2c(O)cccc2C2(Oc3cccc4cccc(c34)O2)C2OC12` (stereo not drawn): the IC50 was 15.5 µM.

Take `O=C(CC1C(=O)Nc2nc3ccccc3n21)Nc1cccc2ccccc12` (stereo not drawn): the IC50 is 16.5 µM.

In the case of `COc1ccccc1-c1nc(-c2cn(-c3cccc(Cl)c3)nn2)no1`, the IC50 is 25.6 µM.

Consider `CCOc1ccc(-n2ccnc(SCC(=O)Nc3ccccc3F)c2=O)cc1`, for which the half-maximal inhibitory concentration (IC50) was 39.1 µM.

Consider `COC(=O)c1ccc(Nc2cc(C)nc3cc(C(F)(F)F)ccc23)cc1`, for which the IC50 is 30.5 µM.

On to `CC(=O)Nc1ccc(Cc2nc(-c3ccc4c(c3)nc(C)c(=O)n4C3CCCC3)no2)cc1`, for which the IC50 was > 40 µM (inactive).

`NS(=O)(=O)c1ccc(CNC(=O)c2ccc(Cl)c(S(=O)(=O)Nc3cc(Cl)ccc3Cl)c2)cc1`: the IC50 is 26.4 µM.

As for `O=S(=O)(c1ccccc1Cl)N1CCN(c2ccc3nnc(-c4ccco4)n3n2)CC1`, the IC50 is > 40 µM (inactive).

As for `Cc1ccc(NC(=O)c2cc(-c3ccncc3)n[nH]2)cc1Cl`, the IC50 is > 40 µM (inactive).

Consider `CCCn1c(=O)c2sccc2n2c(CCC(=O)N3CCc4ccccc4C3)nnc12`, for which the IC50 is > 40 µM (inactive).

Take `Cn1c(O)c(C2=Nc3ccccc3SC(c3cccc(O)c3)C2)c(=O)[nH]c1=O` (stereo not drawn): the IC50 was > 40 µM (inactive).

For the compound `Cc1cccc(-c2nnn3c2nc(NCC2CCCO2)c2ccccc23)c1` (stereo not drawn), the IC50 is > 40 µM (inactive).

Consider `Cc1cc(C)cc(NC(=O)Nc2ccccc2OCc2cc(=O)n3c(ncn3C(C)C)n2)c1`, for which the IC50 is 14.3 µM.

In the case of `O=C(Nc1ccc(Br)cc1F)c1ccc(S(=O)(=O)N2CCCC2)cc1`, the IC50 was > 40 µM (inactive).

Regarding `O=C(CCCCn1c(=O)[nH]c2ccccc2c1=O)Nc1cccc(Cl)c1`, the IC50 is > 40 µM (inactive).

Regarding `CC(C)(C)c1ccc(C2CC(=O)C3=C(C2)Nc2ccccc2N(C(=O)CCC(=O)O)C3c2cccc([N+](=O)[O-])c2)cc1` (stereo not drawn), the IC50 was > 40 µM (inactive).

On to `CCn1cc2c(n1)c(=O)n(Cc1ccc(C)cc1)c(=O)n2CC(=O)Nc1ccc(F)cc1`, for which the IC50 is > 40 µM (inactive).

Take `COc1cccc(NC(=O)c2cn(-c3cc(N4CCCC4)ncn3)cn2)c1`: the IC50 was > 40 µM (inactive).

Turning to `C[C@@H]1OC2=C(C(=O)c3cccc(O)c3C2=O)[C@H](O)[C@@H]1O`, the IC50 is 6.1 µM.

For the compound `Cc1sc(NC(=O)Cn2nnc3ccccc32)nc1-c1ccc2c(c1)CCN2C(=O)c1ccccc1F`, the IC50 is 16.3 µM.

For the compound `O=C(C1=CSCCO1)N1CCc2ccccc2C1`, the IC50 is > 40 µM (inactive).

`Cc1cccc(-n2ccnc(SCC(=O)Nc3ccc(Cl)cc3F)c2=O)c1`: the IC50 is 16.1 µM.

As to `Cc1csc(NC(=O)c2c[nH]c3ccc(F)cc3c2=O)n1`, the IC50 was > 40 µM (inactive).

As for `COc1ccc(-n2c(=O)c3ccc(C(=O)NCCc4ccccc4)cc3n(CC(=O)NCc3ccco3)c2=O)cc1`, the IC50 is > 40 µM (inactive).

For `CCc1ccc(-n2cc(OC(C)=O)c3c2nc(C)n2c4ccccc4nc32)cc1`, the IC50 was > 40 µM (inactive).

For the compound `Cn1c(COc2cccc3cccnc23)nnc1SCC(=O)c1ccc(Cl)cc1Cl`, the IC50 was > 40 µM (inactive).

Regarding `COC(=O)c1cc2c(ccn2-c2ccc(F)cc2)n1CC(=O)NC1CCCCC1`, the IC50 was > 40 µM (inactive).

On to `Cc1ccccc1NC(=O)CSC1=NC2(CCCCC2)Nc2ccccc21`, for which the IC50 is > 40 µM (inactive).

In the case of `CC(=O)c1ccc(NC(=O)CCc2c(C)c3c(C)nn(-c4ccccc4)c3n(C)c2=O)cc1`, the IC50 was > 40 µM (inactive).

Regarding `O=C(Nc1cccc(Cl)c1)c1cc(-c2cccnc2)n[nH]1`, the IC50 is > 40 µM (inactive).

With `COc1ccc(NC(=O)Cn2c(=O)n(CCCCC(=O)NCc3ccco3)c(=O)c3ccccc32)cc1Cl`, the IC50 was > 40 µM (inactive).
